Source: US10865188B2, “Dibenzo azepine compounds and their use in the treatment of otic diseases and disorders” (Pipeline Therapeutics, Inc., priority 2015, dated 2020)
Like-named read-outs stand apart in the source and are kept apart here.

What was measured:
[1] = system: HES5; test: Human neural stem cell assay, Hes5 gene expression (real-time PCR); type: cell-based; conditions: human neural stem cells, 7 point CRC, read-out: hNSC HES5 IC50
Procedure: (§1) Neural stem cells (NSC) were derived from embryonic stem cells using a published protocol (Yuan et al., Mar. 2, 2011, PLoS ONE, 6(3):e17540). Cells were sorted and characterized at passage 3 and were expanded. Cells were then frozen at passage 5. Cells were maintained in NSC media (DMEM/F12, N2 (1×), B27(1×) (Invitrogen), and Pen/Strep (1×) (Life Technologies) with 20 ng/ml bFGF (BD Bioscience/Corning)). On day 1, cells were plated in 96 well plates that have been previously coated with poly-ornithin and laminin, 60,000 cells/well in 100 μl of media. On day 2, spent media was removed, and 180 μl of fresh media was added to the cells. Later that same day (day 2), cells were treated with 20 μl of NSC media containing test compounds (7 point CRC). On day 3, spent media was removed and 140 μl of RLT/bME was added to the cells. RNA was extracted using the QiaCube (Qiagen®, Germantown, Md., USA) using the total RNA extraction+DNAse protocol. RNA was then reverse-transcribed to cDNA using iScript (Bio-Rad, Hercules, Calif., USA). cDNA was then used for real-time PCR analysis using iTaq Sybergreen (BioRad). Expression of Atoh1, Hes5, Hes1, Myosin7a genes was evaluated using CFX96 or CFX384 (Bio-Rad). HPRT1 was used as a reference gene. Analysis was done using Microsoft® Excel® and CBIS (ChemInnovation Software, Inc., San Diego, Calif., USA). […]

[2] = Guinea pig PK after transtympanic delivery (perilymph and cochlea, LC/MS/MS); type: in vivo; conditions: for concentration at 1 day / concentration at 7 day / concentration at 14 day / concentration at 3 day / concentration at 21 day / concentration at 28 day: male, Hartley, other: transtympanic, 30 μL, 30 μL transtympanic; for concentration at 1 day: Day 1, LLOQ = 0.08 μM; for concentration at 7 day: Day 7, LLOQ = 0.08 μM; for concentration at 14 day: Day 14, LLOQ = 0.08 μM; for concentration at 3 day: Day 3, LLOQ = 0.08 μM; for concentration at 21 day: Day 21, LLOQ = 0.08 μM; for concentration at 28 day: Day 28, LLOQ = 0.08 μM
Description: Male Hartley guinea pigs (300-350 g) were anesthetized with ketamine and xylazine. Thirty microliters of an aqueous pharmaceutical composition of the instant embodiments was delivered transtympanically to deposit the drug to the round window membrane. Delivery was unilateral. The animals were placed in a warm chamber in a lateral recumbent position keeping the dosed ear side up until they recover from anesthesia.
At various timepoints after administration, the animals were euthanized by CO2 inhalation. Blood and CSF were collected and stored at −80° C. The animals were decapitated, the temporal bones removed and the bulla opened to expose the otic capsule. Ipsilateral and contralateral perilymph were collected from the apex using a microcapillary tube. The ipsilateral cochlea was removed from the otic capsule and stored at −80° C. All tissues collected were analyzed using LC/MS/MS for test compound concentration as follows. Analytical standards were prepared by spiking known concentrations of the test compound stock solutions into matrices such as plasma or artificial CSF. Fixed amounts of tissues collected and spiked standards were precipitated with acetonitrile containing buspirone as an internal standard. The precipitated samples were centrifuged at 4000 g for 10 minutes at 4° C. The supernatants were analyzed using LC-MS/MS. The LC-MS/MS system was set up using the AB Sciex 4000 Qtrap (AB Sciex, Framingham, Mass.) equipped with Agilent 1200 series HPLC and CTC PAL Autosampler (Agilent Technologies, Santa Clara, Calif.).
Liquid compositions described herein were evaluated using the method described in Part E of the Biological Function section provided above. The liquid compositions prepared as described in Example 5(a)-5(d) were each drawn into a 1 mL syringe. Using the filled 1 mL syringe, the liquid composition was back-filled at 5° C. into a 100 μL Hamilton syringe adapted with 28 gauge needle. The Hamilton syringe was then allowed to warm to room temperature.
Male Hartley guinea pigs (300-350 g) were anesthetized with ketamine and xylazine. Thirty microliters of the above liquid composition were delivered transtympanically to deposit the drug to the round window membrane. The delivery was unilateral. The animals were placed in a warm chamber in a lateral recumbent position keeping the dosed ear side up until they recovered from anesthesia.
At various timepoints after administration, the animals were euthanized by CO2 inhalation. Blood and cerebrospinal fluid were collected and stored at −80° C. The animals were decapitated, the temporal bones removed and the bulla were opened to expose the otic capsule. Ipsilateral and contralateral perilymph were collected from the apex using a microcapillary tube. The ipsilateral cochlea was removed from the otic capsule and was stored at −80° C. All tissues collected were analyzed using LC/MS/MS as described in Part E of the Biological Function section above.
The concentrations of Compound I and Compound II were measured using LC/MS/MS in both the perilymph fluid and the cochlea tissue after a transtympanic injection of an instant formulation of either the crystalline form or the amorphous form at various time points. […] Concentration of the instant compounds in the perilymph and/or cochlea tissue was above the human NSC EC50 for Atoh1, an indicator that the subject compounds may be efficacious in hair cell regeneration and hearing restoration in human. […] Table 3 below lists the results for the studies using aqueous formulations of crystalline Compound I while Table 4 below lists those for aqueous formulations of crystalline Compound II. The results for aqueous formulations of crystalline Compound I are also graphically shown in FIG. 5A and FIG. 5B while the results for aqueous formulations of crystalline Compound II are graphically shown in FIG. 6A and FIG. 6B.

[3] = system: Atoh1; test: Human neural stem cell assay, Atoh1 gene expression (real-time PCR); type: cell-based; conditions: human neural stem cells, 7 point CRC, read-out: hNSC Atoh1 EC50
Procedure: as §1

[4] = system: mice; test: Auditory brainstem response (ABR) hearing threshold; type: in vivo; conditions: formulations of Examples 3(c) and 3(d) (2% w/v crystalline, poloxamer 407)
Procedure: Surgery was performed on naïve mice or mice with noise or pharmacologically-damaged ears. The animals were anesthetized with isoflurane and an 8 mm retroauricular incision was made to the lower caudal edge of the pinna. The skin was retracted and the fatty tissue was blunt dissected away from where the facial nerve and muscle come together. The muscle was retracted to reveal an area in the tympanic bulla where the bone was thin. A 30 g needle was used to drill a hole in the exposed thin portion of the otic bulla. A Hamilton syringe equipped with a 32 g blunt needle was inserted into the opening of the otic bulla. The drug formulation was delivered by injection and the needle removed. Wound closure was made with tissue glue.
Naïve mice or mice at various times after either noise or pharmacological deafening were anesthetized with ketamine/xylazine/acepromazine and the auditory brainstem response was determined in both ears using a Tucker Davis (Alachua, Fla.) RZ6 apparatus. The mice were exposed to clicks or pure tones of 4, 8, 16, 24 and 32 kHz at 90-10 dB in 10 dB descending steps and the hearing threshold was determined.

[5] = cochlea, Amorphous form (Example 5(b)), read-out: Cochlea Average concentration
[6] = cochlea, Crystalline form (Example 5(a)), read-out: Cochlea Average concentration
[7] = perilymph, Amorphous form (Example 5(b)), read-out: perilymph Average concentration
[8] = perilymph, Crystalline form (Example 5(a)), read-out: Perilymph Average concentration

C[C@H](OC(=O)NCC(F)(F)C(F)(F)F)C(=O)N[C@@H]1C(=O)Nc2ccccc2-c2ccccc21 [Compound I, (2,2,3,3,3-pentafluoropropyl)-carbamic acid (S)-1-((S)-6-oxo-6,7-dihydro-5H-dibenzo[b,d]azepin-7-ylcarbamoyl) ethyl ester]
IC50 [1]: 288 nM
concentration in the perilymph and the cochlea compared with the human NSC EC50 for Atoh1 ([2]; dosed as the amorphous form, transtympanic): above the human NSC EC50 for Atoh1 at 1 day and 7 days
concentration in the perilymph and the cochlea compared with the human NSC EC50 for Atoh1 ([2]; dosed as the crystalline form, transtympanic): above the NSC EC50 from day 1 to day 28
concentration at 1 day [2, 5]: 211 µM
concentration at 7 day [2, 5]: 28.4 µM
concentration at 14 day [2, 5]: 0.04 µM
concentration at 1 day [2, 6]: 69 µM
concentration at 3 day [2, 6]: 25.6 µM
concentration at 7 day [2, 6]: 4.1 µM
concentration at 14 day [2, 6]: 9 µM
concentration at 21 day [2, 6]: 6.2 µM
concentration at 28 day [2, 6]: 12.8 µM
concentration at 1 day [2, 7]: 33.3 µM
concentration at 7 day [2, 7]: 14 µM
concentration at 14 day [2, 7]: 0 µM
concentration at 1 day [2, 8]: 395 µM
concentration at 3 day [2, 8]: 568 µM
concentration at 7 day [2, 8]: 18.9 µM
concentration at 14 day [2, 8]: 116 µM
concentration at 21 day [2, 8]: 18.2 µM
concentration at 28 day [2, 8]: 10.4 µM
exposure to the inner ear, crystalline formulation versus respective amorphous formulation ([2]; transtympanic, formulations of Example 5(a)-5(d)): longer exposure
EC50 [3]: 625 nM
ABR Threshold Improvement ([4]; 16 kHz): 7 dB
ABR Threshold Improvement ([4]; 24 kHz): 10 dB
ABR Threshold Improvement ([4]; 32 kHz): 8 dB
